Bounds are passed on as bounds.

In one data set the test system is HIV-1. Briefly: High-titer HIV infectivity test (two-step incubation, p24 ELISA). In kind it is cell-based. The settings on record: for HIV infectivity: high-titer stock. As for the experimental part: The initial set of HIV tests were carried out at Biotech Research Laboratories (Rockville, Md.). The HIV-1 viral isolate and H-9 cell line were originally supplied by Robert Gallo of the NCI.
In a first set of tests, 20 mg of zinc acetate powder (ZnAc, MW 183.4) was mixed in 1 ml RPMI cell culture medium (Whittaker Corp.). This 2% (w/v) salt mixture contained 7 mg/ml elemental Zn. […] Therefore, a small quantity of HCl was added until the mixture became clear; the pH was about 5.5. The Zn concentration was reduced by half (and the pH was raised somewhat) when an equal volume (1 ml) of cell-free high-titer HIV-1 viral stock was added. The zinc/virus mixture was stirred and incubated for 2 hours at 37° C. (i.e., normal body temperature).
Following this first incubation step, the zinc/virus mixtures were diluted at 1:10, 1:30, and 1:100 ratios using culture medium, and aliquots were added to equal volumes of culture media containing H-9 lymphocytes that had been pretreated overnight with 2 μg/ml Polybreen. The lymphocyte mixtures were incubated for three hours at 37° C.; zinc concentrations during this step were 180, 60, and 18 μg/ml for the 1:10, 1:30, and 1:100 dilutions.
The cell aliquots were then washed twice, using culture medium, to remove free p24 proteins that are present in the initial viral stock. Such proteins will skew ELISA readings if not removed by washing. Cells were then resuspended in fresh medium containing 10% fetal calf serum (FCS) and cultured for 20 days. During this period, each tube was periodically sampled by hand-mixing the tube, withdrawing 100 μl of liquid from the top, and testing the sample for p24 antigens using ELISA assays.
A positive control was used at each dilution. Viral aliquots not treated with zinc were identically diluted, mixed with lymphocytes, cultured, and tested. Negative controls were also run, in which H-9 cells were plated and grown in the absence of any virus or zinc; these provided background levels that vary slightly from day to day, depending on factors such as spectrophotometer calibrations and rinsing conditions.
On the technique in general: An ELISA detects its analyte on a solid surface through an enzyme-linked reagent.

For data set [1] the following is noted: cited from earlier work.
The nature of data set [2]: Acidity tests: pH of 5% w/v zinc salt solutions. The settings on record: 5% w/v in distilled deionized water.
Another data set concerns forearm. The data set can be described thus: Irritation test on forearm / skin. It counts as in vivo, human. Here is the method:
Zinc acetate was purchased from Pfaltz and Bauer (Waterbury, Connecticut). About 0.5 grams were mixed with several drops of distilled water at room temperature. […] The aqueous mixture was rubbed into an area about 3 cm in diameter on the forearm of […] and caused no irritation. Subsequently, about 0.5 grams of the salt were dissolved in a few drops of distilled water, then 10 ml K-Y Lubricating Jelly (sold by Johnson and Johnson, New Brunswick, N.J.) was added to form a gel mixture containing about 5% zinc acetate (w/v). This commercially available mixture contains purified water, hydroxyethyl-cellulose as a thickening agent, glycerin as a lubricant, glucono-delta-lactate to prevent crystallization, chlorhexidine gluconate as a preservative, and sodium hydroxide to reduce the acidity.

Turning to Zinc acetate, the p24 concentrations entry with HIV-1 (1% zinc acetate 2 h, diluted 1:30 (60 μg/ml Zn), 20 days culture) is on record as “indistinguishable from background levels”. Besides, the HIV infectivity result in the data set with HIV-1 (1% zinc acetate 2 h, diluted 1:30 (60 μg/ml Zn)) was “completely eliminated”; in the data set on HIV-1 (1% zinc acetate 2 h, diluted 1:30 (60 μg/ml Zn), listed as ZnAc), “completely abolished viral infectivity”; in the data set with HIV-1 (1% zinc acetate 2 h, diluted 1:100 (18 μg/ml Zn)), “reduced and delayed”; in the data set on HIV-1 (1% zinc acetate 2 h, diluted 1:100 (18 μg/ml Zn), listed as ZnAc), “suppressed and retarded HIV infectivity”. The “inhibition of HIV particles (summary of Examples 8-10)” value in the data set with HIV-1 (two-step incubation assay, FIGS. 1-4) is given as “inhibited or entirely inactivated the HIV particles”. The ionization rate in data set [1] (in aqueous solution) is ≤ 30%. In addition, the “Reported pK values” in data set [1] (in water, values below 2 refer to release of a single carboxy anion) was 1.03. Moreover, the “pH of solution (rounded)” value in data set [2] was “about 6.2”. The pH of solution in data set [2] (0.05 subtracted from meter reading, approximately accurate) was 6.27. Moreover, in the data set with forearm (about 0.5 g in several drops of distilled water), the “irritation, forearm” value is “no irritation”. Besides, the “burning and irritation to the skin” value with forearm (dissolved in water alone) is “substantial amount of burning and irritation to the skin”.
